In brackets after ≈: the same amount, converted by molar mass. Structures can show the parent of a compound that is named as a salt. Values belong to the compound of their own block, whether it stands above or below them.
What was measured:
[1] = Solubility of compound A in water and components of mucus layer; type: physicochemical
Method: Compound A is a drug that acts directly from the gastric lumen side on the H. pylori that lives in the mucous layers and therefore, the case wherein after dissolution (I), the bulk powder that has been administered transfers (IV) and the case where the bulk powder is dissolved (II) after transferring to the mucous layers (III) will be considered. The effects of Macrogol 6000 on the course of dissolution of compound A were studied. A specific amount of compound A was added to ion-exchanged water, a 0.8% mucin (Sigma) solution, a 6.2% BSA (Sigma) solution, and linoleic acid (Sigma), and various drugs suspensions were obtained by exposure for 20 minutes to ultrasonic waves (Sono Cleaner, Kaijo Corporation). The rest of the procedure was performed as in Example 1 and the following samples were obtained.
Solubility of compound A in water was calculated by filtering the liquid after dispersion using a hydrophilic filter (0.45 μm, Advantec) and submitting the product to assay by high-performance liquid chromatography (HPLC hereafter) (n=2, sample (1); n=3, sample (2)).
Solubility of the drug in mucin was calculated by filtering the liquid after dispersion using a hydrophilic filter (0.8 μm, Advantec) and submitting the product to assay by HPLC (n=3, samples (3) and (4)).
The liquid after dispersion was filtered with a hydrophilic filter (0.45 μm, Advantec), absorbance at 370 nm and 550 nm (corrected for turbidity) was determined under room temperature using an ultraviolet-visible spectrophotometer, and solubility was calculated (n=3, samples (5) and (6)).
The liquid after dispersion was filtered with a hydrophilic filter (0.45 μm, Advantec), absorbance at 366 nm and 550 nm (corrected for turbidity) was determined under room temperature using an ultraviolet-visible spectrophotometer, and solubility was calculated (n=3, samples (7) and (8)).

[2] = Adsorption of compound A from aqueous phase onto immobilized oil-gel phase (Experiment 2); type: physicochemical; conditions: for adsorption amount of chemical compound A: drug charge 600 μg, 2 h
Method: (§1) In order to study adsorption of a drug from an aqueous phase onto an oil phase (model of mucous layers), an in vitro test system wherein mixing of the oil components in the aqueous phase is prevented was constructed by immobilizing the oil phase with a gelling agent and separating it from the aqueous phase of a drug suspended in a mucin solution. Immobilization of the oil phase was performed by adding 120 mg of an oil gelling agent, which is a natural oil and fat fatty acid extracted from castor oil (Johnson Co., Ltd.), to 2 mL of medium chain fatty acid triglyceride (Nihon Oils and Fats Co., Ltd.; brand name: Panaset) and preparing an oil gel in a test tube (inner diameter of 1 cm, Eiken tube No. 5). A solution of 600 μg of compound A suspended in 2 mL of an aqueous 0.8% mucin solution was prepared and brought into contact with the oil phase (n=6). When Macrogol 6000 was added to the aqueous phase, the concentration was brought to 3.5% (n=3 to 6). After setting the solution aside for two hours, the aqueous phase was recovered and compound A was assayed by HPLC. Furthermore, the surface of the oil phase was washed with methanol and compound A in the recovered solution was assayed by HPLC.

[3] = Rate of adsorption of compound A on the oil-gel phase in presence of POE excipients (Experiment 3); type: physicochemical
Method: as §1
The rate of adsorption of a drug of compound A on the oil phase was measured by the same method as in Example 2.

H. pylori [4] = experiment: In vivo anti-H. pylori activity, Mongolian gerbil infection model (Experiment 4); set-up: species or system Mongolian gerbils; conditions: for Clearance rate: oral twice a day for three days
Method: In vivo anti-H. pylori activity was evaluated with animal experiments using Mongolian gerbil infection models. […] The drug was administered twice a day for three days at an administration volume of 20 mL/kg using an oral stomach tube. The stomach was autopsied and excised and the number of H. pylori in the stomach were measured the day after the final administration. In vivo anti-H. pylori activity was evaluated from clearance, that is, the ratio of the number of cases in which H. pylori was identified and the number of cases in which the number of bacteria after treatment was below the detection limit.

H. pylori [5] = experiment: Minimum concentration at which an increase in bacteria is inhibited; type: cell-based
H. pylori [6] = conditions: compound used alone; cited from earlier work
[7] = Adsorption of various compounds on the oil-gel phase (Experiment 5); type: physicochemical; conditions: 0.8% mucin, 600 μg loading, 2 hours
Method: When Macrogol 6000 was added to the aqueous phase, it was brought to 3.5% (n=3,6). […] The compounds that were used were […], nicardipine hydrochloride, compound B, and compound C. […] Furthermore, the oil phase surface was washed with methanol and the drug adsorbed on the oil phase in the recovered solution was assayed with an ultraviolet-visible spectrophotometer for each compound.

SMILES: CCCCCC/C=C/Cc1c(C)c(=O)c2ccccc2n1O [compound A, 1-hydroxy-2-(2-trans-nonenyl)-3-methyl-4(1H)-quinolone]
solubility ([1]; 0.8% mucin aq. solution (sample 3)): 5.9 µg/mL (≈ 19.7 µM)
solubility ([1]; 0.8% mucin aq. solution +3.5% PEG6000 (sample 4)): 6.9 µg/mL (≈ 23 µM)
solubility ([1]; 6.2% BSA aq. solution (sample 5)): 18.0 µg/mL (≈ 60.1 µM)
solubility ([1]; 6.2% BSA aq. solution +3.5% PEG6000 (sample 6)): 26.9 µg/mL (≈ 89.8 µM)
increase in solubility when Macrogol 6000 was added ([1]; BSA solution, sample 6 vs 5): 1.5 fold
increase in solubility when Macrogol 6000 was added ([1]; aqueous mucin solution, sample 4 vs 3): 1.2 fold
solubility ([1]; distilled water +3.5% PEG6000 (sample 2)): 0.1 µg/mL (≈ 0.334 µM)
solubility ([1]; distilled water, no PEG6000 (sample 1)): 0.1 µg/mL (≈ 0.334 µM)
solubility ([1]; linoleic acid (sample 7)): 135.0 µg/mL (≈ 451 µM)
solubility ([1]; linoleic acid +10% PEG6000 (sample 8)): 110.0 µg/mL (≈ 367 µM)
drug adsorbed at the surface of the oil phase, % of the drug that was added ([2]; compound A-mucin suspension with Macrogol 6000, average): 93%
drug adsorbed at the surface of the oil phase, % of the charged amount ([2]; compound A-mucin suspension, no Macrogol 6000): 47%
adsorption amount of chemical compound A ([2]; mucin (+), with 3.5% PEG6000): 506 µg
adsorption amount of chemical compound A ([2]; mucin (+), with 3.5% PEG6000, listed as chemical compound A): 506 ± 53 µg
adsorption amount of chemical compound A ([2]; mucin (+), without PEG6000): 259 µg
adsorption amount of chemical compound A ([2]; mucin (+), without PEG6000, listed as chemical compound A): 259 ± 63 µg
adsorption amount of chemical compound A ([2]; mucin (−), with 3.5% PEG6000): 173 ± 25 µg
adsorption amount of chemical compound A ([2]; mucin (−), without PEG6000): 249 ± 24 µg
increase in amount adsorbed on the oil phase when Macrogol 6000 was added ([2]; mucin suspension, with vs without Macrogol 6000): 2.0 fold
Adsorption on the oil-gel phase, amount(%) ([3]; excipient HCO 60 (n 60, m 10)): 33 ± 14%
Adsorption on the oil-gel phase, amount(%) ([3]; excipient HCO 80 (n 80, m 13.3)): 17 ± 10%
Adsorption on the oil-gel phase, amount(%) ([3]; excipient HCO 100 (n 100, m 16.7)): 37 ± 11%
Adsorption on the oil-gel phase, amount(%) ([3]; excipient PEG400 (n 8, m 8)): 42 ± 9%
Adsorption on the oil-gel phase, amount(%) ([3]; excipient PEG 4000 (n 72, m 72)): 42 ± 4 %
Adsorption on the oil-gel phase, amount(%) ([3]; excipient PEG 6000 (n 188, m 188)): 72 ± 3 %
Adsorption on the oil-gel phase, amount(%) ([3]; excipient PEG 20000 (n 455, m 455)): 79 ± 0 %
Adsorption on the oil-gel phase, amount(%) ([3]; excipient Pluronic F68 (n 160, m 80)): 67 ± 3 %
Adsorption on the oil-gel phase, amount(%) ([3]; excipient Pluronic L31 (n 3, m 1.5)): 28 ± 5%
Adsorption on the oil-gel phase, amount(%) ([3]; excipient Pluronic L44 (n 20, m 10)): 25 ± 2%
Adsorption on the oil-gel phase, amount(%) ([3]; excipient Pluronic L64 (n 27, m 13.5)): 32 ± 5%
Adsorption on the oil-gel phase, amount(%) ([3]; excipient Pluronic P85 (n 54, m 27)): 40 ± 4 %
Adsorption on the oil-gel phase, amount(%) ([3]; excipient Pluronic P103 (n 29, m 14.5)): 22 ± 7%
Adsorption on the oil-gel phase, amount(%) ([3]; without excipient): 19 ± 7%
augmentation of the in vivo anti-H. pylori activity (H. pylori [4]; 0.2% Macrogol 6000 added vs 0.5% MC suspension alone): 10 fold
clearance (H. pylori [4]; 0.2% Macrogol 6000 in 0.5% MC suspension, dose of 0.1 mg/kg or higher): ≥ 80%
in vivo anti-H. pylori activity with Macrogol 6000 compared to without (H. pylori [4]; 0.2% of Macrogol 6000 added): augmentation of in vivo anti-H. pylori activity was seen
Clearance ratio (H. pylori [4]; PEG6000 0%, dose 0.1 mg/kg): (0/5)
Clearance rate (H. pylori [4]; PEG6000 0%, dose 0.1 mg/kg): 0%
Clearance ratio (H. pylori [4]; PEG6000 0%, dose 0.3 mg/kg): (1/5)
Clearance rate (H. pylori [4]; PEG6000 0%, dose 0.3 mg/kg): 20%
Clearance ratio (H. pylori [4]; PEG6000 0%, dose 1 mg/kg): (4/5)
Clearance rate (H. pylori [4]; PEG6000 0%, dose 1 mg/kg): 80%
Clearance rate (H. pylori [4]; PEG6000 0%, dose 1 mg/kg, listed as chemical compound A): 80%
Clearance ratio (H. pylori [4]; PEG6000 0%, dose 3 mg/kg): (4/5)
Clearance rate (H. pylori [4]; PEG6000 0%, dose 3 mg/kg): 80%
Clearance ratio (H. pylori [4]; PEG6000 0.2%, dose 0.1 mg/kg): (4/5)
Clearance rate (H. pylori [4]; PEG6000 0.2%, dose 0.1 mg/kg): 80%
Clearance ratio (H. pylori [4]; PEG6000 0.2%, dose 0.3 mg/kg): (4/4)
Clearance rate (H. pylori [4]; PEG6000 0.2%, dose 0.3 mg/kg): 100%
Clearance ratio (H. pylori [4]; PEG6000 0.2%, dose 1 mg/kg): (4/5)
Clearance rate (H. pylori [4]; PEG6000 0.2%, dose 1 mg/kg): 80%
Clearance ratio (H. pylori [4]; PEG6000 0.2%, dose 3 mg/kg): (4/4)
Clearance rate (H. pylori [4]; PEG6000 0.2%, dose 3 mg/kg): 100%
minimum concentration at which an increase in bacteria is inhibited (H. pylori [5]): 0.025 µg/mL
number of live bacteria in vivo (H. pylori [6]): reduction in the number of live bacteria in vivo

SMILES: Cc1cccc(NC(=O)N[C@@H]2N=C(c3ccccc3)c3ccccc3N(CC(=O)c3ccccc3C)C2=O)c1 [compound B, (R)-1-[2,3-dihydro-1-(2′-methylphenacyl)-2-oxo-5-phenyl-1H-1,4-benzodiazepin-3-yl]-3-(3-methylphenyl)urea]
adsorption amount of chemical compound ([7]; with 3.5% PEG6000): 411 ± 3 µg
adsorption amount of chemical compound ([7]; without PEG6000): 269 ± 13 µg

adsorption amount of chemical compound ([7]; with 3.5% PEG6000): 370 ± 12 µg
adsorption amount of chemical compound ([7]; without PEG6000): 335 ± 10 µg
SMILES: Cc1nc2c([nH]1)-c1ccccc1N(C(=O)c1ccc(NC(=O)c3ccccc3-c3ccccc3)cc1)CC2.Cl [compound C, 4′-[(2-methyl-1,4,5,6-tetrahydroimidazo[4,5-d][1]benzazepin-6-yl)carbonyl]-2-phenylbenzanilide hydrochloride]

adsorption amount of chemical compound ([7]; with 3.5% PEG6000): 96 ± 5 µg
adsorption amount of chemical compound ([7]; without PEG6000): 47 ± 6 µg
SMILES: COC(=O)C1=C(C)NC(C)=C(C(=O)OCCN(C)Cc2ccccc2)C1c1cccc([N+](=O)[O-])c1 (stereo not shown) [nicardipine, nicardipine hydrochloride, reference compound]

From patent publication US7153524B2, “Method for improving adsorption of a drug from ethylene oxide derivative” (Astellas Pharma Inc., priority 2002, dated 2006)
